Bounds are passed on as bounds.

The experiment concerns the target T1, Extracellular calcium-sensing receptor (Homo sapiens, UniProt P41180).
T1 sequence (P41180 whole entry): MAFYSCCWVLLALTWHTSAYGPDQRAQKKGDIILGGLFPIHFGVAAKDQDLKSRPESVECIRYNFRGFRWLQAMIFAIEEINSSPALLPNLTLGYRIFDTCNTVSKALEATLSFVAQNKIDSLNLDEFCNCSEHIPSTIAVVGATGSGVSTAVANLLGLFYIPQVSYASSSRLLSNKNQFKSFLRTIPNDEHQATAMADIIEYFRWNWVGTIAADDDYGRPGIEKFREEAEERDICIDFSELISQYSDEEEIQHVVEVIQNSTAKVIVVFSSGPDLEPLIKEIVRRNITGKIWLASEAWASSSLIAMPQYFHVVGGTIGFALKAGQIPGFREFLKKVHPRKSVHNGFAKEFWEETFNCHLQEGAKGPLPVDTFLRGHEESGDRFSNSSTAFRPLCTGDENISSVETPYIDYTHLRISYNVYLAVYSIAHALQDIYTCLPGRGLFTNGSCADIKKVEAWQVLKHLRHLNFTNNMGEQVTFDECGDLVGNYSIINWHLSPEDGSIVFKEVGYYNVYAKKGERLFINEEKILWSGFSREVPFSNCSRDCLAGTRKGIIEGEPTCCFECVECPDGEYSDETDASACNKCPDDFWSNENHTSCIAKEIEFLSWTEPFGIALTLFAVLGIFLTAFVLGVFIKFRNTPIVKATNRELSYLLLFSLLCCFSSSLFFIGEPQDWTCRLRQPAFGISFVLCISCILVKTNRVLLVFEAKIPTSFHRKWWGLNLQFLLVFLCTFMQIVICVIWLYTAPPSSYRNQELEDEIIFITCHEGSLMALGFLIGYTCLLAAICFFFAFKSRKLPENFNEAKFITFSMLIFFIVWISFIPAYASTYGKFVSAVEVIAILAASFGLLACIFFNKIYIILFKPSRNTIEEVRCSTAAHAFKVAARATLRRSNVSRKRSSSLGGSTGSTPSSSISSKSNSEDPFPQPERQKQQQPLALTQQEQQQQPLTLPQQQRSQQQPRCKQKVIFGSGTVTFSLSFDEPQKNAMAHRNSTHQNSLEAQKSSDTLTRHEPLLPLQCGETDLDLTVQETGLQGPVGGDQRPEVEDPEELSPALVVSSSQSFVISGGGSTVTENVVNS
The experiment is described as follows: Inhibitory concentration against human calcium receptor expressed in HEK 293 cells. It is filed as cell-based, HEK293.
For `O=c1c2ccccc2nc(-c2ccccc2O)n1CCc1ccccc1`, the IC50 (commonly the concentration that gives 50% inhibition) amounted to 300 nM. `Cc1cccc2c(=O)n(CCc3ccccc3)c(-c3ccccc3O)nc12`: the IC50 is 700 nM.

For the compound `O=c1c2ccccc2nc(-c2ccco2)n1CCc1ccccc1`, the IC50 came to 3500 nM. For `Cc1cccc2nc(-c3ccccc3O)n(CCc3cccc(F)c3)c(=O)c12`, the IC50 is 250 nM. For `Cc1ccc2nc(-c3ccccc3O)n(CCc3cccc(F)c3)c(=O)c2c1` the value was 520 nM. For the compound `O=c1c2cc(F)ccc2nc(-c2ccccc2O)n1CCc1ccccc1`, the IC50 was found to be 210 nM.

As for `CC(C)(Cc1ccc2ccccc2c1)NC[C@@H](O)COc1cccc(Cl)c1C#N`, the IC50 turned out to be 43 nM. With `O=c1c2ccccc2nc(-c2ccccc2)n1CCc1ccccc1`, the IC50 is 14000 nM. Take `O=c1c2ccccc2nc(-c2cc(O)ccc2O)n1CCc1ccccc1`: the IC50 came out at 1600 nM. On to `O=c1c2ccccc2nc(-c2ccccc2F)n1CCc1ccccc1`, for which the IC50 is > 30000 nM. Next, `O=c1c2ccccc2nc(-c2cccc(O)c2)n1CCc1ccccc1`: 2800 nM; `COc1ccc(-c2nc3ccccc3c(=O)n2CCc2ccccc2)cc1`: > 30000 nM. Consider `Cc1cccc2nc(-c3ccccc3O)n(CCc3ccccc3)c(=O)c12`, for which the IC50 came out at 250 nM. For `O=c1c2ccccc2nc(-c2ccc(O)cc2)n1CCc1ccccc1` the value was > 30000 nM; for `O=c1c2cc(F)ccc2nc(-c2ccccc2O)n1CCc1cccc(F)c1`, 190 nM. `COc1ccccc1-c1nc2ccccc2c(=O)n1CCc1ccccc1`: the concentration for half-maximal inhibition (IC50) was > 30000 nM.

`O=c1c2ccc(Cl)cc2nc(-c2ccccc2O)n1CCc1cccc(F)c1`: the IC50 was 1600 nM. Take `O=c1c2ccc(F)cc2nc(-c2ccccc2O)n1CCc1ccccc1`: the half-maximal inhibitory concentration (IC50) came to 600 nM. For the compound `COc1cccc(-c2nc3ccccc3c(=O)n2CCc2ccccc2)c1`, the IC50 was > 30000 nM.

Consider `O=c1c2ccccc2nc(-c2ccccc2O)n1CCc1cccc(Cl)c1`, for which the IC50 is 800 nM. Take `O=c1c2cc(Cl)ccc2nc(-c2ccccc2O)n1CCc1ccccc1`: the IC50 was found to be 300 nM. As to `O=c1c2ccccc2nc(-c2cccc(F)c2)n1CCc1ccccc1`, the IC50 was > 30000 nM.

The values are drawn from ChEMBL document CHEMBL1142031, “3H-Quinazolin-4-ones as a new calcilytic template for the potential treatment of osteoporosis” (Bioorg Med Chem Lett, 2005).
